Results reported in patent US11981680B2, “Substituted thienopyrroles as PAD4 inhibitors” (BRISTOL-MYERS SQUIBB COMPANY, priority 2018, dated 2024).

Biological target: human PAD4 (hPAD4) (Homo sapiens (Human), UniProt Q9UM07)
Test: RFMS Human PAD4 Functional Assay
Format: biochemical
Conditions: rapid-fire mass spectrum (RFMS) assay; 5 nM hPAD4 enzyme, 250 μM BAEE, 30 min preincubation at 37° C.
Experimental: Compounds of the present invention were assayed as inhibitors of PAD4 using the assay protocol described below.
RFMS Human PAD4 Functional Assay:
Compounds were solubilized in 100% DMSO to achieve a10 mM compound concentration. Compound stock solutions were stored at RT. A series of dilutions were prepared in DMSO and mixed 8 times with 20 μL mixing volume. Final top concentration of compound in the assay is 50 μM. Final assay conditions were as follows: • Reaction volume: 26 μl • Assay buffer: 25 mM hepes, pH 7.5, 5 mM NaCl, 1 mM DTT, 0.2 mg/ml BSA, 0.01% CHAPS, 50 μM Calcium, and 5 μM TPEN • Final concentrations: 5 nM hPAD4 enzyme, 250 μM BAEE, and 0.5% DMSO • Total incubation time: 30 mins compound and enzyme preincubation at 37° C., 90 min enzyme/substrate reaction, 30 min reaction with phenyl glyoxal at 37° C. • Stop solution: 40 μl 5% TCA in ACN
0.13 μL of compound solution was added to 13 μL of 10 nM PAD4 in assay buffer. After 30 min 13 μl of 500 μM of BAEE was added in 25 mM hepes, pH 7.5, 5 mM NaCl, 1 mM DTT, 0.2 mg/ml BSA, 0.01% CHAPS, 50 μM Calcium, 5 μM TPEN was added and the reaction incubated for 90 min at 37° C. The enzymatic reaction was quenched by addition of 15 μl of 6.1N TCA, 100% Final Concentration is 20%, 35 μl of 8.5 mM phenyl glyoxal (final concentration 4 mM) is then added and the reaction is incubated for 30 min at 37° C.
After 30 minutes the plates are spun down to remove all precipitate. The enzyme reaction was quenched with an equal volume of methanol containing internal standard (modified citrulline). Samples were loaded onto the Rapid Fire RF300 system (Agilent) wherein they were first sipped for 1000 ms and then directly loaded to a C18 separations cartridge using a mixture of acetonitrile containing 0.01% formic acid for 3000 ms desalting. The flow rate of the mobile phase was 1.5 ml/min. Once the samples were eluted from the cartridge, a mobile phase of acetonitrile containing 0.01% formic acid was used to move the samples into the mass spectrometer for 4000 ms at a flow rate of 1.25 ml/min/Sciex API5500 triple quadrupole mass spectrometer (Applied Biosystems) equipped with ESI was used to analyze the peptidyl citrulline and internal standard ions.
MRM transition of product and internal standard were monitored at m/z 424.5 to 350.4 and m/z 293 to 247 respectively. The dwell time for each transition was set at 200 ms, and the ESI voltage was used at 5500 with a source temperature of 400° C. Extracted ion peaks for each transition were integrated using the Rapid Fire Integrator software. Peak area of analyte was normalized with internal standard.).

human PAD4 (hPAD4), sequence (Q9UM07 whole entry): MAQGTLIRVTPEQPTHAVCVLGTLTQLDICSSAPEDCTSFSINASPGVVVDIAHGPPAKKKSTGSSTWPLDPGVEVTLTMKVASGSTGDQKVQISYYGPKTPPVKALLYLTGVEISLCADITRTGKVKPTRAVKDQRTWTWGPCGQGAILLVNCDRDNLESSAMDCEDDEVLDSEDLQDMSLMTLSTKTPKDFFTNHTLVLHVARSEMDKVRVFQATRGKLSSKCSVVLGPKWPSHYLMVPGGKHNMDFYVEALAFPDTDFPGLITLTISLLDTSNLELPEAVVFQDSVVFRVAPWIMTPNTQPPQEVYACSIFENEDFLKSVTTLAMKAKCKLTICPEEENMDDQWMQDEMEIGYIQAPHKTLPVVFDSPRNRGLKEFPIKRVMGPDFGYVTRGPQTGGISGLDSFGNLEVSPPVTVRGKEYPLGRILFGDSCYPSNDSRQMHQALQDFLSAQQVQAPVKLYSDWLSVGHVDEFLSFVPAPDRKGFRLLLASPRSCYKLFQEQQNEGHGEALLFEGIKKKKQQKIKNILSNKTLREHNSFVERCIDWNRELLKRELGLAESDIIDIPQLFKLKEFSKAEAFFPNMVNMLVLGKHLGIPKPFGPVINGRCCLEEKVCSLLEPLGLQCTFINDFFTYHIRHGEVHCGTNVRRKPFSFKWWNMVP

| IC50 [nM] | Compound |
| --- | --- |
| 24 | COc1cc(C(=O)N2C[C@H]3CC[C@@H]2[C@@H]3N)cc2nc(-c3cc4scc(-c5cc[nH]n5)c4n3CC3CC3)n(C)c12 [Example 40, ((1R,4R,7R)-7-amino-2-azabicyclo[2.2.1]heptan-2-yl)(2-(4-(cyclopropylmethyl)-3-(1H-pyrazol-3-yl)-4H-thieno[3,2-b]pyrrol-5-yl)-7-methoxy-1-methyl-1H-benzo[d]imidazol-5-yl)methanone] |
| 140 | COc1cc(C(=O)N2C[C@H]3CC[C@@H]2[C@@H]3N)cc2nc(-c3cc4scc(-c5cnc(C#N)nc5)c4n3CC3CC3)n(C)c12 [Example 41, 5-(5-(5-((1R,4R,7R)-7-amino-2-azabicyclo[2.2.1]heptane-2-carbonyl)-7-methoxy-1-methyl-1H-benzo[d]imidazol-2-yl)-4-(cyclopropylmethyl)-4H-thieno[3,2-b]pyrrol-3-yl)pyrimidine-2-carbonitrile] |
| 59 | COc1cc(C(=O)N2C[C@H]3CC[C@@H]2[C@@H]3N)cc2nc(-c3cc4scc(-c5cnn(CC(F)(F)F)c5)c4n3CC3CC3)n(C)c12 [Example 42, ((1R,4R,7R)-7-amino-2-azabicyclo[2.2.1]heptan-2-yl)(2-(4-(cyclopropylmethyl)-3-(1-(2,2,2-trifluoroethyl)-1H-pyrazol-4-yl)-4H-thieno[3,2-b]pyrrol-5-yl)-7-methoxy-1-methyl-1H-benzo[d]imidazol-5-yl)methanone] |
| 51 | COc1cc(C(=O)N2C[C@H]3CC[C@@H]2[C@@H]3N)cc2nc(-c3cc4scc(-c5cnn(CC(F)F)c5)c4n3CC3CC3)n(C)c12 [Example 43, ((1R,4R,7R)-7-amino-2-azabicyclo[2.2.1]heptan-2-yl)(2-(4-(cyclopropylmethyl)-3-(1-(2,2-difluoroethyl)-1H-pyrazol-4-yl)-4H-thieno[3,2-b]pyrrol-5-yl)-7-methoxy-1-methyl-1H-benzo[d]imidazol-5-yl)methanone] |
| 113 | COc1cc(C(=O)N2C[C@H]3CC[C@@H]2[C@@H]3N)cc2nc(-c3cc4scc(-c5cccn5C)c4n3CC3CC3)n(C)c12 [Example 44, ((1R,4R,7R)-7-amino-2-azabicyclo[2.2.1]heptan-2-yl)(2-(4-(cyclopropylmethyl)-3-(1-methyl-1H-pyrrol-2-yl)-4H-thieno[3,2-b]pyrrol-5-yl)-7-methoxy-1-methyl-1H-benzo[d]imidazol-5-yl)methanone] |
| 53 | COc1cc(C(=O)N2C[C@H]3CC[C@@H]2[C@@H]3N)cc2nc(-c3cc4scc(-c5ccnn5C)c4n3CC3CC3)n(C)c12 [Example 45, ((1R,4R,7R)-7-amino-2-azabicyclo[2.2.1]heptan-2-yl)(2-(4-(cyclopropylmethyl)-3-(1-methyl-1H-pyrazol-5-yl)-4H-thieno[3,2-b]pyrrol-5-yl)-7-methoxy-1-methyl-1H-benzo[d]imidazol-5-yl)methanone] |
| 173 | COc1cc(C(=O)N2C[C@H]3CC[C@@H]2[C@@H]3N)cc2nc(-c3cc4scc(-c5ccc[nH]5)c4n3CC3CC3)n(C)c12 [Example 46, ((1R,4R,7R)-7-amino-2-azabicyclo[2.2.1]heptan-2-yl)(2-(4-(cyclopropylmethyl)-3-(1H-pyrrol-2-yl)-4H-thieno[3,2-b]pyrrol-5-yl)-7-methoxy-1-methyl-1H-benzo[d]imidazol-5-yl)methanone] |
| 147 | COc1cc(C(=O)N2C[C@H]3CC[C@@H]2[C@@H]3N)cc2nc(-c3cc4scc(-c5ccncc5)c4n3CC3CC3)n(C)c12 [Example 47, ((1R,4R,7R)-7-amino-2-azabicyclo[2.2.1]heptan-2-yl)(2-(4-(cyclopropylmethyl)-3-(pyridin-4-yl)-4H-thieno[3,2-b]pyrrol-5-yl)-7-methoxy-1-methyl-1H-benzo[d]imidazol-5-yl)methanone] |
